From publication PMC11207005 (Pharmaceuticals, 2024)

How the values were obtained:
[1] = Phase solubility study: solubility of pure ALB in distilled water; format: physicochemical; settings: thermodynamic from solid, 25 °C
Protocol: (§1) Phase solubility tests were conducted in distilled water following the procedure outlined in the Higuchi and Connors technique. […] Samples were placed in the water bath (25 °C/2 days/50 rpm) to attain equilibrium. Samples of 3 mL were withdrawn and filtered through a 0.45 μm nylon membrane filter. The filtrate (1 mL) was diluted appropriately with methanol, stirred for one hour (200 rpm), and assayed at 340 nm. The concentrations used were 2, 4, 10, 15, and 20 mmol/L for both βCD and HPβCD.

[2] = cited from earlier work
[3] = Dissolution test, USP apparatus type II; format: physicochemical; settings: pH 6.8 phosphate buffer, 37 °C, 100 rpm, powder
Protocol: In the following circumstances, the dissolution test was carried out on the prepared ALB capsules and the complex-containing ones. The dissolution medium was a USP type II (paddle type) and 900 mL of pH 6.8 phosphate buffer at 37 ± 1 °C with the rotation speed fixed at […]. At selected time points (10, 20, …, 80), 2 mL samples of dissolution medium were withdrawn and replaced with a fresh buffer. Times start from 0-time points for powder dissolution and end after 20 min (average time to dissolve the capsule shell).

[4] = cited from earlier work; remark: listed apart in the source
[5] = Phase solubility study of ALB with HPβCD (stability constant); format: physicochemical; settings: distilled water, 25 °C
Protocol: as §1

[6] = Oral pharmacokinetic (bioavailability) study in rats, non-compartmental analysis; format: in vivo, Wistar rats
Protocol: The Shimadzu SCL-10A VP system control (Kyoto, Japan) has a mass detector (LCMS2010A) from Shimadzu Kylimatu, Japan. The mobile phase comprised acetonitrile–deionized water–formic acid (70: 30: 0.1%, v/v). Rosuvastatin was utilized as an internal standard. The injection volume was 10 µL; the flow rate was […]; the autosampler temperature was 5 °C; the column temperature was 25 °C; and the column was ACE (C18; 4.6 × […]) with particle size of 5.0 µm.
The samples were prepared for injection into the instrument as follows: Samples (including known/unknown spiked plasma and samples) were obtained from the deep freezer, followed by a period of room-temperature thaw. Later, a plasma pipet was performed on the samples after they were shaken to form a mixture. A total of 270 µL of blank plasma per 300 µL of spiked plasma were pipetted into the labeled test tubes, and 30 µL of serial solutions into blank plasma were added. Then, 50 µL of rosuvastatin (IS) working solutions were added. Then, the samples were vortexed for roughly 10 s. A total of 700 µL of acetonitrile (precipitation solutions) were added and vortexed again for 2.0 min, then centrifugated at 4000 rpm for roughly five min at room temperature. After that, 200 µL from the supernatant was transferred to the HPLC vials inserts. Finally, the vials were capped and transferred into the autosampler racks.
The study protocol was validated and approved by the Institutional Review Board (IRB) of Applied Science University (ASU) (Decision no. 6/2021–2022). The preclinical investigation was conducted at the Animal House of ASU as a combined project. A total of 12 Wistar rats were prepared for this study and divided into two groups, with each group containing 6 rats. The average weight of the animals was 200 g ± 15 g, aged four weeks, and they were all males.
The animals for the experiment were prepared by depriving them of food (for about twelve hours) apart from full access to water, and they were identified by a sign mark on the tail. After the dosing of ALB, samples were retrieved from the rat’s tail. After, the tail was warmed for half a minute via a hot pad before every sampling period. […] The samples were kept in heparinized Eppendorf tubes, centrifugated to obtain the plasma, frozen at −25 °C, and kept until the time of analysis.
The plasma level–time profile of ALB was obtained using Microsoft Excel. Two profiles, F1 in G1 and F2 in G2, were plotted. […] ANOVA was applied to detect significant parameter differences using a […].

[7] = Phase solubility study of ALB with βCD (stability constant); format: physicochemical; settings: distilled water, 25 °C
Protocol: as §1

[8] = male, Wistar, rat, plasma, po, 15 mg/kg

- solubility at 2 days [1]: 2 µM
- solubility at 2 days ([1]; approximate): ~1 µg/mL
- T30 (amount of ALB released in 30 min) [3]: 18%
- Ks (stability constant) [5]: 1836 M⁻¹
- Plasma concentration of ALB at 72 h ([6]; Wistar rats, F1 and F2, LLOQ 15 ng/mL): below the LLOQ
- AUC(0-inf) [6, 8]: 7280 ± 306 ng·h/mL
- Cmax [6, 8]: 240 ± 26.9 ng/mL
- Tmax [6, 8]: 7.33 ± 1.03 h
- AUC(0-t) ([6]; male, Wistar, rat, plasma, po, 15 mg/kg, read-out: AUC0-48 (AUC-48)): 5950 ± 265 ng·h/mL
- k el ([6]; male, Wistar, rat, plasma, po, 15 mg/kg, read-out: Kel (elimination rate constant) (converted)): 1.25e-05 s⁻¹
- Ks (stability constant) [7]: 500 M⁻¹
SMILES: CCc1cc2c(cc1N1CCC(N3CCOCC3)CC1)C(C)(C)c1[nH]c3cc(C#N)ccc3c1C2=O [ALB, Alectinib]
- log partition coefficient (log p) [2]: 5.2
- Oral bioavailability [4]: around 37%
